Experimental data: PMC5874699, “Antimicrobial and Antibiofilm Activity of UP-5, an Ultrashort Antimicrobial Peptide Designed Using Only Arginine and Biphenylalanine” (Pharmaceuticals, 2018)

Key:
[1] = tested on: P. aeruginosa (ATCC BAA-2114); assay type: cell-based, Pseudomonas aeruginosa; conditions: P. auroginosa ATCC BAA-2114, antibiotic alone, triplicate; for Antibiotics MBC Alone: 99.9% killing; for Antibiotics MIC Alone: microbroth dilution
Excerpt: (§1) All bacterial susceptibility, biofilm, and synergistic assays of peptides, antibiotics, and peptides-antibiotics combinations used bacterial strains obtained from the American Type Tissue Culture Collection (ATCC, Manassas, VA, USA) that states the mechanism of resistance for each strain according to ATCC number. Gram-positive bacteria were represented by five strains, the wild type strain Staphylococcus aureus (ATCC 29213) and methicillin-resistant S. aureus (MRSA) (ATCC 33591) in addition to clinically isolated strains S. aureus (ATCC BAA-41& 43300) and Enterococcus faecalis (ATCC BAA-2316). The Gram-negative bacteria strains were represented by wild type strains of Escherichia coli (ATCC 25922 & 35218) and Pseudomonas aeruginosa (ATCC 27853) as well as the clinically isolated multidrug-resistant strain P. aeruginosa (ATCC BAA-2114). The bacteria were cultured onto Muller Hinton Agar (Scharlab, S.L, Barcelona, Spain). Mueller Hinton Broth (Oxoid Ltd., Basingstoke, UK) was used to prepare all bacterial suspensions and to dissolve the peptides and the antibiotics. The assay was performed in sterile 96-well polypropylene microtiter plates.
(§2) All bacterial susceptibility assays were conducted according to the microbroth dilution method outlined by the Clinical and Laboratory Standards Institute (CLSI) guidelines.
(§3) Briefly, pre-sterilized MHB was used as a growth medium for organisms obtained from stock media with glycerol. Bacterial cells were grown overnight in MHB and diluted to 10^6 CFU/mL in the same medium prior to use. For peptide, serial concentrations in the range of 0.5–100 μM were prepared. Then, 50 μL of each peptide concentration and 50 µL of diluted bacterial suspension were added to each well of a 96-well microtiter plate. Peptide solutions were prepared by dissolving the peptide in sterile MHB. Then, the plates were incubated overnight in a humidified atmosphere, and at 37 °C. Bacterial growth was determined by measuring the optical density (OD) at λ = 600 nm using an ELISA plate reader (Epoch, BioTek, Winooski, VT, USA) and the minimum inhibitory concentration (MIC) was determined.
(§4) As described in the previous section, the MIC and MBC values of antibiotics employed in this study were determined against subjected bacterial strains via preparing different concentrations of each antibiotic.

[2] = tested on: S. aureus (ATCC BAA-41); experiment: Broth microdilution checkerboard, UP-5 with antibiotics; assay type: cell-based, Staphylococcus aureus; conditions: for Antibiotics MIC in Combination / Antibiotics Reduction in MIC (%) / FIC Index: S. aureus ATCC BAA-41; for Antibiotics MIC in Combination: antibiotic in combination with UP-5, checkerboard, triplicate; for Effect of the combination according to FIC value: S. aureus (ATCC BAA-41); for Effect of the combination according to FIC value / FIC Index: antibiotic-UP-5 combination; for Antibiotics Reduction in MIC (%): antibiotic MIC in combination with UP-5 compared to MIC alone; for FIC Index: checkerboard
Excerpt: as §1
(§5) According to the broth microdilution checkerboard technique, the MIC and MBC values of peptide-antibiotics combinations against wild type and multidrug resistant bacterial strains were determined. Serial concentrations of peptide and each antibiotic were prepared in the range of 0.005–100 μM. In each well of a 96-well microtiter plate, 25 μL of each peptide concentration were added to 25 μL of each antibiotic concentration which is followed by adding 50 μL of diluted bacterial suspension (10^6 CFU/mL) to each well. The prepared concentrations of peptide and each antibiotic were arranged into rows and columns, respectively, in a 96-well microtiter plate according the checkerboard technique. Then as described previously (see Section 2.4.1), the procedure was followed. All MIC and MBC determinations of all assays were made in triplicate.
(§6) The fractional inhibitory concentration (FIC) is defined as the inhibitory concentration of the antimicrobial combination divided by that of the single antimicrobial component. To calculate FIC index for peptide-antibiotic combinations, the following equation was used:(1) FIC index=MIC of drug X in combination/MIC of drug X alone+MIC of drug Y in combination/MIC of drug Y alone
(§7) The FIC indices were interpreted as follows: ≤0.5: synergistic activity, 0.5–1: additive activity, 1–4 indifferent, >4: antagonism. Interpretation and assessment of the FIC indices were performed according to the broth microdilution checkerboard technique.

[3] = tested on: S. aureus (ATCC 43300); experiment: as above; assay type: cell-based, Staphylococcus aureus; conditions: for Effect of the combination according to FIC value: S. aureus (ATCC 43300); for Effect of the combination according to FIC value / FIC Index: antibiotic-UP-5 combination; for Antibiotics MIC in Combination: antibiotic in combination with UP-5, checkerboard, triplicate; for FIC Index: checkerboard
Excerpt: as §1, §5, §6, §7

[4] = tested on: S. aureus (ATCC 33591); experiment: as above; assay type: cell-based, Staphylococcus aureus; conditions: for Effect of the combination according to FIC value: S. aureus (ATCC 33591); for Effect of the combination according to FIC value / FIC Index: antibiotic-UP-5 combination; for Antibiotics Reduction in MIC (%) / Antibiotics MIC in Combination / FIC Index: S. aureus ATCC 33591; for Antibiotics Reduction in MIC (%): antibiotic MIC in combination with UP-5 compared to MIC alone; for Antibiotics MIC in Combination: antibiotic in combination with UP-5, checkerboard, triplicate; for FIC Index: checkerboard
Excerpt: as §1, §5, §6, §7

[5] = tested on: S. aureus (ATCC 29213); experiment: as above; assay type: cell-based, Staphylococcus aureus; conditions: for Antibiotics Reduction in MIC (%) / Antibiotics MIC in Combination / FIC Index: S. aureus ATCC 29213; for Antibiotics Reduction in MIC (%): antibiotic MIC in combination with UP-5 compared to MIC alone; for Antibiotics MIC in Combination: antibiotic in combination with UP-5, checkerboard, triplicate; for Effect of the combination according to FIC value: S. aureus (ATCC 29213); for Effect of the combination according to FIC value / FIC Index: antibiotic-UP-5 combination; for FIC Index: checkerboard
Excerpt: as §1, §5, §6, §7

[6] = tested on: Staphylococcus aureus (ATCC 29213); assay type: cell-based; conditions: S. aureus ATCC 29213, antibiotic alone, triplicate; for Antibiotics MBC Alone: 99.9% killing; for Antibiotics MIC Alone: microbroth dilution
Excerpt: as §1, §2, §3, §4

[7] = tested on: S. aureus (ATCC BAA-41); assay type: cell-based, Staphylococcus aureus; conditions: S. aureus ATCC BAA-41, antibiotic alone, triplicate; for Antibiotics MBC Alone: 99.9% killing; for Antibiotics MIC Alone: microbroth dilution
Excerpt: as §1, §2, §3, §4

[8] = tested on: S. aureus (ATCC 43300); assay type: cell-based, Staphylococcus aureus; conditions: S. aureus ATCC 43300, antibiotic alone, triplicate; for Antibiotics MBC Alone: 99.9% killing; for Antibiotics MIC Alone: microbroth dilution
Excerpt: as §1, §2, §3, §4

[9] = tested on: methicillin-resistant S. aureus (MRSA) (ATCC 33591); experiment: MIC/MBC, microbroth dilution (CLSI); assay type: cell-based, Staphylococcus aureus; conditions: S. aureus ATCC 33591, antibiotic alone, triplicate; for Antibiotics MBC Alone: 99.9% killing; for Antibiotics MIC Alone: microbroth dilution
Excerpt: as §1, §2, §3, §4

[10] = tested on: P. aeruginosa (ATCC BAA-2114); experiment: Broth microdilution checkerboard, UP-5 with antibiotics; assay type: cell-based, Pseudomonas aeruginosa; conditions: for Effect of the combination according to FIC value: P. aeruginosa (ATCC 2114 as printed); for Effect of the combination according to FIC value / FIC Index: antibiotic-UP-5 combination; for Antibiotics Reduction in MIC (%) / Antibiotics MIC in Combination / FIC Index: P. auroginosa ATCC BAA-2114; for Antibiotics Reduction in MIC (%): antibiotic MIC in combination with UP-5 compared to MIC alone; for Antibiotics MIC in Combination: antibiotic in combination with UP-5, checkerboard, triplicate; for FIC Index: checkerboard
Excerpt: as §1, §5, §6, §7

Compound | Antibiotics MBC Alone [1] | Antibiotics MIC Alone [1] | Antibiotics MIC in Combination [2] | Effect of the combination according to FIC value [3] | Antibiotics MIC in Combination ([3]; S. aureus ATCC 43300) | Effect of the combination according to FIC value [4] | Antibiotics Reduction in MIC (%) [4] | Antibiotics Reduction in MIC (%) [5] | Antibiotics MIC in Combination [5] | Antibiotics MBC Alone [6] | Antibiotics MIC Alone [6] | Antibiotics MBC Alone [7] | Antibiotics MIC Alone [7] | Antibiotics MBC Alone [8] | Antibiotics MIC Alone [8] | Antibiotics MBC Alone [9] | Antibiotics MIC Alone [9] | Effect of the combination according to FIC value [10] | Antibiotics Reduction in MIC (%) [10] | Antibiotics MIC in Combination [10] | other results
CC1(C)S[C@@H]2[C@H](NC(=O)[C@H](N)c3ccccc3)C(=O)N2[C@H]1C(=O)O [Ampicillin, ampicillin] | > 500 µM | > 500 µM | 20 µM | additive (0.5–1: additive activity) | 2.5 µM | synergistic (≤0.5: synergistic activity) | 85.3% | <50% | 2.5 µM | 2.5 µM | 2.5 µM | 40 µM | 40 µM | 20 µM | 20 µM | 85 µM | 85 µM | additive (0.5–1: additive activity) | >50% | 250 µM | 
O=C(N[C@H](CO)[C@H](O)c1ccc([N+](=O)[O-])cc1)C(Cl)Cl [Chloramphenicol, chloramphenicol] | 325 µM | 200 µM | 7.5 µM | additive (0.5–1: additive activity) | 7.5 µM | additive (0.5–1: additive activity) | 50% |  | 10 µM | 30 µM | 20 µM | 30 µM | 25 µM | 20 µM | 15 µM | 150 µM | 130 µM | synergistic (≤0.5: synergistic activity) | 93.7% | 12.5 µM | Effect of the combination according to FIC value [2]: additive (0.5–1: additive activity); Antibiotics Reduction in MIC (%) [2]: 70%; FIC Index [2]: 0.8; FIC Index ([3]; S. aureus ATCC 43300): 1; Antibiotics MIC in Combination [4]: 65 µM; FIC Index [4]: 1; Effect of the combination according to FIC value [5]: additive (0.5–1: additive activity); FIC Index [5]: 0.75; FIC Index [10]: 0.24
CC[C@H]1OC(=O)[C@H](C)[C@@H](O[C@H]2C[C@@](C)(OC)[C@@H](O)[C@H](C)O2)[C@H](C)[C@@H](O[C@@H]2O[C@H](C)C[C@H](N(C)C)[C@H]2O)[C@](C)(O)C[C@@H](C)C(=O)[C@H](C)[C@@H](O)[C@]1(C)O [Erythromycin, erythromycin] | 150 µM |  |  |  | 100 µM |  | <50% | <50% | 0.5 µM | 1.5 µM | 0.5 µM | 400 µM | 350 µM | 150 µM | 100 µM | 10 µM | 8 µM | additive (0.5–1: additive activity) | 60% | 50 µM | Antibiotics Reduction in MIC (%) [2]: 64.3%; Antibiotics Reduction in MIC (%) ([3]; S. aureus ATCC 43300, antibiotic MIC in combination with UP-5 compared to MIC alone): <50%; Antibiotics MIC in Combination [4]: 8 µM
C[C@H]1COc2c(N3CCN(C)CC3)c(F)cc3c(=O)c(C(=O)O)cn1c23 [Levofloxacin, levofloxacin] | 12 µM | 12 µM | 10 µM | synergistic (≤0.5: synergistic activity) | 5 µM | synergistic (≤0.5: synergistic activity) | 87.5% | 90% | 0.05 µM | 0.5 µM | 0.5 µM | 10 µM | 10 µM | 20 µM | 20 µM | 10 µM | 10 µM | additive (0.5–1: additive activity) | 58.3% | 5 µM | Effect of the combination according to FIC value [2]: indifferent (1–4 indifferent); Antibiotics Reduction in MIC (%) [2]: <50%; FIC Index [2]: 2; FIC Index ([3]; S. aureus ATCC 43300): 0.25; Antibiotics Reduction in MIC (%) ([4]; listed as levofloxacin): 90%; Antibiotics MIC in Combination [4]: 1.25 µM; FIC Index [4]: 0.13; Effect of the combination according to FIC value [5]: synergistic (≤0.5: synergistic activity); Antibiotics Reduction in MIC (%) ([5]; listed as levofloxacin): 87.5%; FIC Index [5]: 0.11; FIC Index [10]: 0.78
